Columns and labels:
Test in all cases: relative viability (nuclei count vs DMSO), 5 days (fraction); higher = more cells survive
[1] = compound: COC1=CC=C(C=C1)CN2C=CC3=C2C=C(C=C3)C(=O)NO
Procedure, shortened: (§1)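 Viability was defined as treated-well nuclei divided by vehicle-well nuclei, with the median taken over replicate plates. Cells from lung cancer lines sat overnight at 37 °C in 1536-well plates, received five √10-spaced library-drug doses by pinning on vehicle-anchored plates, and grew 5 days without medium change before one-step fixation, permeabilisation and Hoechst staining, 4× imaging and MetaXpress nuclear counts. Only plates with control CV under 25% and at least one doubling were kept.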

[2] = compound: C[C@]1(c2nc3c(C(N)=O)cccc3[nH]2)CCCN1 [Veliparib]
Procedure, shortened: as §1

[3] = compound: COC1=CC=C(C=C1)CN2C=CC3=C2C=C(C=C3)C(=O)NO + CC1(C)CCC(c2ccc(Cl)cc2)=C(CN2CCN(c3ccc(C(=O)NS(=O)(=O)c4ccc(N[C@H](CCN5CCOCC5)CSc5ccccc5)c(S(=O)(=O)C(F)(F)F)c4)cc3)CC2)C1 [Navitoclax] (partner 0.5 µM)
Procedure, shortened: (§2)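 Relative viability divides the nuclei count in treated wells by that in vehicle wells. Lung cancer cell lines were seeded in 1536-well plates, dosed by pin tool the next day, and fixed and stained after 5 days in one step with final 0.05% Triton X-100, 1% formaldehyde and 1 ug/ml Hoechst. Dosing was a single drug or a fixed anchor-drug dose plus five library-drug doses (not always all listed) in √10 steps, and values are medians of duplicate plates imaged at 4×.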

[4] = compound: COC1=CC=C(C=C1)CN2C=CC3=C2C=C(C=C3)C(=O)NO + COc1cc2c(Oc3ccc(NC(=O)C4(C(=O)Nc5ccc(F)cc5)CC4)cc3F)ccnc2cc1OCCCN1CCOCC1 [Foretinib] (partner 0.25 µM)
Procedure, shortened: as §2

Cell Line	relative viability ([1]; 0.08 µM)	relative viability ([1]; 0.253 µM)	relative viability ([1]; 0.8 µM)	relative viability ([1]; 2.53 µM)	relative viability ([1]; 8 µM)	relative viability ([2]; 0.02 µM)	relative viability ([2]; 0.06325 µM)	relative viability ([2]; 0.2 µM)	relative viability ([2]; 0.6325 µM)	relative viability ([2]; 2 µM)	relative viability ([3]; first compound 0.08 µM)	relative viability ([3]; first compound 0.253 µM)	relative viability ([3]; first compound 0.8 µM)	relative viability ([3]; first compound 2.53 µM)	relative viability ([3]; first compound 8 µM)	relative viability ([4]; first compound 0.08 µM)	relative viability ([4]; first compound 0.253 µM)	relative viability ([4]; first compound 0.8 µM)	relative viability ([4]; first compound 2.53 µM)	relative viability ([4]; first compound 8 µM)
NCI-H1975	0.862	0.976	0.923	0.979	0.872	1.03	0.876	0.903	0.884	0.861	0.979	1.17	1.26	1.06	1.16	0.931	1.14	0.934	0.968	0.926
NCI-H1793	–	1	1.02	1.03	1.01	0.881	0.923	0.904	0.865	0.932	0.461	0.672	0.479	0.406	0.424	–	0.732	0.63	0.656	0.63
NCI-H1651	0.918	0.963	0.969	0.91	0.926	0.977	0.906	0.96	0.882	0.915	0.926	1.14	1.07	0.987	0.92	0.646	0.89	0.709	0.723	0.694
NCI-H1755	0.869	1.03	0.965	0.993	0.973	1.02	0.957	1.02	0.913	0.963	0.949	1.02	1	1.03	1.02	0.892	1.01	0.915	0.941	0.946
NCI-H1915	0.888	0.992	1.02	0.982	0.881	0.949	0.881	0.786	0.9	0.928	0.724	0.778	0.799	0.807	0.781	1.07	1.1	1.15	1.07	1.09
HOP-62	0.865	1.01	0.992	1.03	0.958	0.934	0.909	0.963	0.976	1.02	0.547	0.984	1.02	1.08	1.02	0.74	1.14	1.08	1.01	1.1
HARA	–	1.02	1.08	0.89	0.884	0.858	0.939	0.955	0.979	0.915	0.479	1.1	1.13	1.17	1.14	–	0.868	0.958	0.826	0.55
NCI-H520	0.708	1.04	1.03	1.04	0.97	0.977	0.975	0.97	0.87	0.993	0.279	1.18	1.27	1.15	1.09	0.326	0.841	0.895	0.814	0.907
NCI-H1395	0.752	0.915	0.877	0.963	0.753	0.594	0.655	0.791	0.817	0.692	0.688	1.29	1.12	1.4	0.992	0.916	0.949	0.99	1.04	0.99
EKVX	0.782	1.02	0.991	1.05	0.957	0.744	0.93	0.94	1	0.972	0.934	1	0.968	0.988	0.952	0.542	0.555	0.801	0.762	0.849
CAL-12T	1.02	0.889	1.04	1.05	0.891	0.918	0.926	0.981	0.9	1.02	0.964	1.29	1.25	1.24	1.23	0.918	1	1.2	1.06	1
NCI-H1734	–	0.957	1.16	1.02	0.73	0.82	0.857	0.957	0.858	0.997	–	0.899	0.947	0.805	0.882	–	0.919	0.852	0.897	0.863
A549	0.905	1.01	0.953	0.986	0.895	1	0.957	0.962	0.9	0.989	1.22	1.26	1.25	1.15	1.07	0.802	0.965	0.948	0.952	0.987
BEN	1.03	0.986	0.936	0.976	0.856	0.833	0.873	0.987	0.86	0.87	0.0556	0.0746	0.0683	0.156	0.0729	0.604	0.459	0.454	0.641	0.479
NCI-H2126	0.99	1.03	1.03	1.02	0.942	0.986	0.926	0.984	0.985	0.999	0.824	0.931	0.849	0.848	0.886	1.14	1.22	1.15	1.2	1.26
NCI-H2023	0.908	1.02	1.02	0.949	0.87	0.853	0.939	0.919	0.85	0.928	0.94	1.07	0.946	0.994	0.98	0.489	0.899	0.778	0.697	0.722

— the supplement of paper PMC10307832
